Reference: ChEMBL document CHEMBL1201862, “PubChem BioAssay data set” (2004)
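The compound was tested at five concentrations on cells cultured in 96-well plates, with a 48-hour exposure period. At the GI50, growth is halved.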 Active and inactive are the calls of the source. Rule as the data show it: active = GI50 up to about 1.1 µM and inactive = higher.

Key:
Assay in all cases: NCI tumour cell line growth inhibition, 48 h
BT-549 = system: BT-549
SNB-78 = system: SNB-78
DMS-114 = system: DMS-114
DMS-273 = system: DMS-273
KM-20L2 = system: KM-20L2
DLD-1 = system: DLD-1
XF498 = system: XF498
HOP-18 = system: HOP-18
RXF 631 = system: RXF 631

SMILES	GI50 (BT-549)	GI50 (SNB-78)	GI50 (DMS-114)	GI50 (KM-20L2)	GI50 (DLD-1)	also measured
O=C1OC[C@H]2[C@@H]1[C@H]1O[C@@H]2C2=C(CCC2)C1=O	> 100 µM (inactive)					
COC(=O)C(=O)C(C(=O)C(=O)Nc1ccc(C)c(C)c1)c1nc2ccc([N+](=O)[O-])cc2nc1O (stereo unspecified)	> 100 µM (inactive)					
CC(C)CCC[C@@H](C)[C@H]1CC[C@H]2[C@@H]3CC=C4CC(OCCCCN(O)CCCSC5OC(CO)C(O)C(O)C5O)CC[C@]4(C)[C@H]3CC[C@]12C (stereo partly specified)		74.8 µM (inactive)	25.5 µM (inactive)	> 100 µM (inactive)	56.4 µM (inactive)	GI50 (DMS-273): 32 µM (inactive); GI50 (XF498): > 100 µM (inactive)
C/C=C(\C)c1cc(O)c(C)c2c1Oc1cc(O)c(Cl)c(C)c1C(=O)O2		29.1 µM (inactive)	29.6 µM (inactive)	20.7 µM (inactive)	17.4 µM (inactive)	GI50 (DMS-273): 34.1 µM (inactive); GI50 (HOP-18): < 0.01 µM (active)
Oc1ccc2ccccc2c1/N=N/c1cc(Cl)ccc1Cl	> 50 µM (inactive)					
Cc1cc(C)n(C2OC(CO)C(O)C(O)C2O)c(=S)c1C#N (stereo unspecified)	> 100 µM (inactive)					
CN(C)c1nc(N(C)c2ccccc2)[s+]s1		> 100 µM (inactive)	30.8 µM (inactive)	> 100 µM (inactive)	92.3 µM (inactive)	GI50 (DMS-273): 47.2 µM (inactive); GI50 (XF498): 20 µM (inactive); GI50 (HOP-18): > 100 µM (inactive)
O=C(O)c1cscc1Cc1cccs1	> 100 µM (inactive)					
COc1ccc(Nc2nc3ccc(C(F)(F)F)cc3nc2C(=O)O)cc1OC	22.5 µM (inactive)					
N/C(=N\Nc1cccc(Cl)c1)c1cccnc1	> 69 µM (inactive)					
CC(=O)N1C(CCc2ccccc2)CC(C)(C=O)C1Cc1ccc(O[Si](C(C)C)(C(C)C)C(C)C)cc1 (stereo unspecified)	15.6 µM (inactive)					
Cc1ccc(C[N+](C)(C)N)cc1C	> 10 µM (inactive)					
O=C1/C(=C/c2n[nH]cc2-c2ccc(Cl)cc2)C(=O)N(c2ccccc2)C1c1ccccc1 (stereo unspecified)	14.6 µM (inactive)					
COc1ccc(NC(=O)C2C(=O)N(c3ccc(OC)cc3)C(=O)/C2=N\N)cc1 (stereo unspecified)		> 100 µM (inactive)	> 100 µM (inactive)	> 100 µM (inactive)	> 100 µM (inactive)	GI50 (RXF 631): > 100 µM (inactive); GI50 (HOP-18): > 100 µM (inactive)
CCN1CCC(O)(/C=C/c2ccc(Cl)cc2)C(C(=O)/C=C/c2ccc(Cl)cc2)C1 (stereo unspecified)		45.5 µM (inactive)	26.6 µM (inactive)	32.1 µM (inactive)	16.5 µM (inactive)	GI50 (DMS-273): 28.4 µM (inactive); GI50 (XF498): 81.1 µM (inactive)
C=CCCC12CCCC(=O)C1Sc1ccc3ccccc3c12 (stereo unspecified)		20.8 µM (inactive)			22.4 µM (inactive)	GI50 (DMS-273): 5.38 µM (inactive); GI50 (RXF 631): 11.6 µM (inactive); GI50 (HOP-18): 19.7 µM (inactive)
CSc1ccc(OCC2OC2O)cc1 (stereo unspecified)		> 100 µM (inactive)	12.9 µM (inactive)	46.2 µM (inactive)	45.7 µM (inactive)	GI50 (DMS-273): 34.2 µM (inactive); GI50 (XF498): 30.5 µM (inactive); GI50 (HOP-18): > 100 µM (inactive)
CCN(CCCOc1ccccc1)CCN(CC)CCCOc1ccccc1	14.3 µM (inactive)					
O=C1CC2OCC=C3CN4CCC5(C(=O)O)C(N1)C2C3CC45 (stereo unspecified)	> 100 µM (inactive)					
C(=N\OCc1ccccc1)/c1ncccc1C1OCCO1		> 100 µM (inactive)	> 100 µM (inactive)	> 100 µM (inactive)	> 100 µM (inactive)	GI50 (DMS-273): > 100 µM (inactive); GI50 (HOP-18): > 100 µM (inactive)
Cc1nc(C(N)=S)sc1C(=O)C/C(=N/N)C(=O)Nc1cccc(Cl)c1C	> 100 µM (inactive)					

SMILES	GI50 (BT-549)	GI50 (SNB-78)	GI50 (DMS-114)	GI50 (KM-20L2)	GI50 (DLD-1)	also measured
Oc1c(CN2CCOCC2)ccc(CN2CCOCC2)c1O	81.3 µM (inactive)					
Cc1c(Cl)cccc1NC(=O)CC1C(=O)Nc2ccccc2S1(=O)=O (stereo unspecified)		20.2 µM (inactive)	16.5 µM (inactive)	22.4 µM (inactive)	15.1 µM (inactive)	GI50 (DMS-273): 7.69 µM (inactive); GI50 (XF498): 15.2 µM (inactive)
CCOC(=O)c1c(N2CCCC2)ncn(-c2ccccc2)c1=S	> 100 µM (inactive)					
CC1CC2OC(=O)C3CC(O)CC(=C23)[C@@]12C[C@@H](c1ccoc1)OC2=O (stereo partly specified)		> 100 µM (inactive)		> 100 µM (inactive)	> 100 µM (inactive)	GI50 (DMS-273): > 100 µM (inactive); GI50 (XF498): > 100 µM (inactive); GI50 (HOP-18): > 100 µM (inactive)
CCCCCCCCCCCCOCCCCCCCCC/C=C/c1ccc2c(c1)OCCOCCOCCOCCO2	23.4 µM (inactive)					
Cc1c2cnccc2c(C)c2c1c1ccccc1n2CCCN	1.46 µM (inactive)	0.76 µM (active)	0.31 µM (active)	0.183 µM (active)	0.116 µM (active)	GI50 (DMS-273): 0.133 µM (active); GI50 (XF498): 0.713 µM (active); GI50 (HOP-18): 0.492 µM (active)
CC1CN=C(Nc2ccccc2)S1 (stereo unspecified)	> 100 µM (inactive)					
CC(C)(C)c1ccc(O)c(CN(Cc2cc(C(C)(C)C)ccc2O)c2ccccc2)c1	21 µM (inactive)					
CCN(CCO)CC1COc2ccccc2O1 (stereo unspecified)	> 100 µM (inactive)					
Ic1cc2c(cc1C1SCCCS1)OCO2		> 100 µM (inactive)	> 100 µM (inactive)	> 100 µM (inactive)	> 100 µM (inactive)	GI50 (DMS-273): > 100 µM (inactive); GI50 (RXF 631): > 100 µM (inactive); GI50 (HOP-18): > 100 µM (inactive)
NC12c3c4cccc3Oc3cccc(c31)Oc1cccc(c12)O4	> 50 µM (inactive)					
O=C(N/N=C\c1ccc([N+](=O)[O-])s1)c1ccncc1	11.3 µM (inactive)					
Cc1ccc(N(C)S(=O)(=O)c2ccccc2)cc1	61 µM (inactive)					
CN(/N=C/c1cccc2cccnc12)c1ccc([N+](=O)[O-])cc1		> 100 µM (inactive)	> 100 µM (inactive)	> 100 µM (inactive)	> 100 µM (inactive)	GI50 (DMS-273): > 100 µM (inactive); GI50 (XF498): > 100 µM (inactive); GI50 (HOP-18): > 100 µM (inactive)
COc1c(C2(c3ccc(F)cc3)SCCCS2)c(=O)c1=O	> 100 µM (inactive)					
CCOC(=O)Oc1ccc2c(c1)c(=O)c1c(NCCN(CC)CC)ccc3nnn2c31	10.5 µM (inactive)					
C=C1CC2(C[C@@H](c3ccccc3)O[C@@H](c3ccccc3)C2)OC1=O (stereo partly specified)	1.76 µM (inactive)					
Cl[Si]1(Cl)Oc2ccccc2O[Si](Cl)(Cl)Oc2ccccc2O1			1.88 µM (inactive)	27.1 µM (inactive)	34 µM (inactive)	GI50 (DMS-273): 7.38 µM (inactive); GI50 (RXF 631): 7.78 µM (inactive); GI50 (XF498): 15.2 µM (inactive)
Clc1ccc(C(c2ccc(Cl)cc2)N2CCNCC2)cc1	16.9 µM (inactive)					
OCCCNCc1ccncc1	> 100 µM (inactive)					
C=C1CCc2occ(C)c2C2C1C1=C(CC(C)C1=O)C1OC12C (stereo unspecified)		> 100 µM (inactive)	99.1 µM (inactive)	> 100 µM (inactive)	> 100 µM (inactive)	GI50 (XF498): 91.6 µM (inactive); GI50 (HOP-18): 2.26 µM (inactive)

SMILES	GI50 (BT-549)	GI50 (SNB-78)	GI50 (DMS-114)	GI50 (KM-20L2)	GI50 (DLD-1)	also measured
C[N+]1(C)C2Cc3ccccc3C1Cc1ccccc12	> 100 µM (inactive)					
CC(=O)OCC1=C(CCC#N)N2C(=O)C(NC(=O)Cc3cccs3)C2[S+]([O-])C1 (stereo unspecified)		> 100 µM (inactive)	> 100 µM (inactive)	> 100 µM (inactive)	> 100 µM (inactive)	GI50 (DMS-273): > 100 µM (inactive); GI50 (XF498): > 100 µM (inactive); GI50 (HOP-18): > 100 µM (inactive)
O=C(CSc1nc(-c2ccccc2)c(-c2ccccc2)[nH]1)N/N=C/c1ccc([N+](=O)[O-])cc1		21.2 µM (inactive)	18.5 µM (inactive)	8.87 µM (inactive)	18.1 µM (inactive)	GI50 (DMS-273): 14.1 µM (inactive); GI50 (XF498): 13.2 µM (inactive)
CCCC(=O)N1CCN(c2ccc3c(c2)OC(C)O3)CC1 (stereo unspecified)	> 100 µM (inactive)					
Clc1ccc(SCCSCCCCCCCCCCSCCSc2ccc(Cl)cc2)cc1		> 100 µM (inactive)	> 100 µM (inactive)	> 100 µM (inactive)	> 100 µM (inactive)	GI50 (DMS-273): > 100 µM (inactive); GI50 (RXF 631): > 100 µM (inactive); GI50 (HOP-18): > 100 µM (inactive)
COc1cc2c(c(OC)c1OC)-c1ccc(SC)c(=O)cc1[C@@H](NC(=O)c1ccc(C#N)cc1)CC2		< 0.01 µM (active)	< 0.01 µM (active)	< 0.01 µM (active)	< 0.01 µM (active)	GI50 (DMS-273): < 0.01 µM (active); GI50 (XF498): < 0.01 µM (active)
Cc1ccc(/C=N/n2c(=O)[nH]c3ccccc3c2=O)cc1	> 100 µM (inactive)					
Cc1c(C)c2c(c(N)c1C#N)C(=O)N(NC(=S)Nc1ccccc1)C2=O	> 100 µM (inactive)					
CC1=C(CCC(C)CO)O[C@H]2C[C@H]3[C@@H]4CC[C@H]5C[C@@H](O)CC[C@]5(C)[C@H]4CC(=O)[C@]3(C)[C@@H]12 (stereo partly specified)	16 µM (inactive)					
Cc1ccc(/N=N/c2ccc(O)c(CN(C)C)c2)cc1C	25.6 µM (inactive)					
CCN1C[C@]2(C)CC[C@H](OC)C34C5C[C@@H]6[C@@H](OC)C[C@@](OC)(C5[C@H]6OCc5ccccc5)C(C13)[C@H](OC(C)=O)[C@@H]42 (stereo partly specified)	> 100 µM (inactive)					
CCCCCCCC(=O)OC[n+]1cccc(-c2c(COC(=O)NC(C)C)c(COC(=O)NC(C)C)c3n2CCC3)c1	> 84.5 µM (inactive)					
O=S(=O)(NC1OCCCC1I)c1ccccc1 (stereo unspecified)	> 100 µM (inactive)					
COc1ccc(Cc2nc3cc(Cl)ccc3o2)cc1	19.4 µM (inactive)					
CC(=O)Nc1ccc2c3c(cc(O)c2c1)N(C(=O)CCCCCC(=O)N1CC(CCl)c2c1cc(O)c1cc(NC(C)=O)ccc21)CC3CCl (stereo unspecified)	0.0134 µM (active)					
Cc1ccc([N+](=O)[O-])cc1NC(=O)C(=O)Cc1cc(=O)oc2cc(O)ccc12		> 100 µM (inactive)	18.5 µM (inactive)	63.7 µM (inactive)	> 100 µM (inactive)	GI50 (XF498): > 100 µM (inactive); GI50 (HOP-18): > 100 µM (inactive)
Cn1ncc(NCCn2cnc3c2c(=O)n(C)c(=O)n3C)c(Cl)c1=O	> 100 µM (inactive)					
NC(=S)Nc1nc(=S)[nH]c2c1SC1=N/C(=C\c3ccco3)C(=O)N12	> 100 µM (inactive)					
COc1cc(C2C3=C(COC3=O)Oc3cc4c(cc32)OCO4)ccc1O (stereo unspecified)	1.1 µM (active)					
CC(C)N(C(=O)C12C3C4C5(C#N)C3C1(C#N)C5C42C#N)C(C)C (stereo unspecified)		> 100 µM (inactive)	> 100 µM (inactive)	> 100 µM (inactive)	> 100 µM (inactive)	GI50 (DMS-273): > 100 µM (inactive); GI50 (XF498): > 100 µM (inactive); GI50 (HOP-18): > 100 µM (inactive)
CC1OC(OC2C(O[C@H]3CC[C@@]4(C)C(=CC[C@H]5[C@@H]6C[C@@H]7O[C@]8(CC[C@@H](CO)CO8)[C@@H](C)[C@@H]7[C@@]6(C)CC[C@@H]54)C3)OC(CO)C(O)C2OC2OC(CO)C(O)C(O)C2O)C(O)C(O)C1O (stereo partly specified)	> 10 µM (inactive)					
